From US6221877A, “Substituted 4-phthalimidocarboxanilides as inhibitors of purine salvage phosphoribosyltransferases” (Regents of the University of California, priority 2000, dated 2001)
“Also recorded” adds a separate entry of the source. Like-named read-outs stand apart in the source and are kept apart here. Values belong to the compound of their own block, whether it stands above or below them.

Key:
T. foetus HGXPRT = molecular target: T1, T. foetus HGXPRT (Tritrichomonas foetus, UniProt P51900); experiment: Spectrophotometric enzyme assay, recombinant T. foetus HGXPRT; type: biochemical; conditions: for potency of combined 2-methyl / benzyl-substituted inhibitors relative to parent inhibitors: compared with Ia(4), Ia(5), Ia(6); for increase in affinity for T. foetus HGXPRT (lower IC50) compared to compound Ia(1): relative to compound Ia(1)
T1 construct: made in house; host or cells: E. coli strain SØ606 transformed with pBTfprt
T1 sequence (P51900 1-183): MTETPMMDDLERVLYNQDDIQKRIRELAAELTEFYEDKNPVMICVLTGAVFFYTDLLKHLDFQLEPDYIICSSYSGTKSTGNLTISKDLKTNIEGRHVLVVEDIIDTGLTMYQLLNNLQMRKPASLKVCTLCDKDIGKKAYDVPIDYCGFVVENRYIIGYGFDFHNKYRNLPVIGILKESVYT
Protocol: (§1) Enzyme Assays: Recombinant T. foetus HGXPRT and human HGPRT were isolated from E. coli strain S.O slashed.606, transformed with pBTfprt and pBAcprt expression plasmids, respectively (Chin, et al., Mol. Biochem. Parasitol. 63:221-229 (1994); Kanaaneh, et al., Eur. J. Biochem. 223:595-601 (1994)). Spectrophotometric enzyme assays were performed as described in Yuan, et al., Biochemistry 31:806-810 (1992). The compounds tested were dissolved in DMSO-d6, and concentrations were determined by integration of NMR peaks with methylene chloride as an internal standard. The concentration of DMSO in the assays was kept at 10%.

human HGPRT = molecular target: T2, human HGPRT (Homo sapiens, UniProt P00492); experiment: Spectrophotometric enzyme assay, recombinant human HGPRT; type: biochemical; conditions: for IC50: Table 2, read-out: IC50, Human HGXPRT; for selectivity for T. foetus HGXPRT over human HGPRT: ratio of human HGPRT to T. foetus HGXPRT inhibition
T2 construct: made in house; host or cells: E. coli strain SØ606 transformed with pBAcprt
T2 sequence (P00492 1-218): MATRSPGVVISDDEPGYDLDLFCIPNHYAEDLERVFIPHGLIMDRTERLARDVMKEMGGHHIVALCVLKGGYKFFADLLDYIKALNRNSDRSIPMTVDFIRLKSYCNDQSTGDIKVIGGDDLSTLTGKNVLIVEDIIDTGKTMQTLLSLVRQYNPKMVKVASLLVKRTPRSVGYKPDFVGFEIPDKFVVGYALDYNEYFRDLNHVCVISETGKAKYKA
Protocol: as §1

[1] = system: T. foetus strain kv1 trophozoites; experiment: Cell culture assay, in vitro growth of T. foetus; type: cell-based, Tritrichomonas foetus; conditions: for IC50: Tritrichomonas foetus
Protocol: Cell Culture Assays: T. foetus strain kv1 trophozoites were cultivated in Diamond's TYM medium at 37° C. Cell densities in time samples were determined using a hemocytometer. The concentration of DMSO in culture medium was maintained at or below 1%, which had no apparent effect on cell growth.
Indeed, compound Ia(5)-induced inhibition of T. foetus growth was reversed by increasing the concentration of hypoxanthine in the growth medium. A minimum hypoxanthine concentration between 0.2 and 0.5 mM was required for the survival of the cells challenged with 5 μM of compound Ia(5). Hypoxanthine at concentrations>1 mM essentially abolished any inhibition of cell proliferation under these experimental conditions.

[2] = Table 1, 10% DMSO, read-out: IC50, Inhibition of T. foetus HGXPRT
[3] = Table 1, Diamond's TYM medium, 37° C., DMSO at or below 1%, read-out: ED50, in vitro growth of T. foetus
[4] = read-out: IC50 values, T. foetus HGXPRT

SMILES: Cc1c(NC(=O)c2ccc3c(c2)C(=O)NC3=O)cccc1OCc1ccc(Cl)c(Cl)c1 [Ia(16)]
- IC50 (T. foetus HGXPRT; [2]): 9.3 µM
- potency of combined 2-methyl / benzyl-substituted inhibitors relative to parent inhibitors (T. foetus HGXPRT): less potency

- IC50 (T. foetus HGXPRT; [2]): 8.2 µM
SMILES: COc1cc(COc2cccc(NC(=O)c3ccc4c(c3)C(=O)NC4=O)c2)cc(OC)c1 [Ia(7)]

- IC50 (T. foetus HGXPRT; [2]): 28 µM
SMILES: Cc1cc(COc2ccccc2)cc(NC(=O)c2ccc3c(c2)C(=O)NC3=O)c1 [Ia(2), (4'-Phthalimido)Carboxamido-3-Methyl-5-Phenoxymethylbenzene]

SMILES: O=C(Nc1ccc(Cl)c(Cl)c1)c1ccc2c(c1)C(=O)NC2=O [(4'-phthalimido)carboxamido-3,4-dichlorobenzene, reference compound]
- activity on HGXPRT compared with 5-[N-(3,4-dichlorophenyl)carbamoyl]-1,3-isobenzofurandione (T. foetus HGXPRT; comparison of the phthalimide with its phthalic anhydride analog): equally active

SMILES: Cc1ccc(COc2cccc(NC(=O)c3ccc4c(c3)C(=O)NC4=O)c2)cc1 [Ia(6)]
- IC50 (T. foetus HGXPRT; [2]): 1.7 µM
- increase in affinity for T. foetus HGXPRT (lower IC50) compared to compound Ia(1) (T. foetus HGXPRT): 10 fold

- IC50 (T. foetus HGXPRT; [2]): 4.3 µM
- IC50 (human HGPRT): > 50 µM
- selectivity for T. foetus HGXPRT over human HGPRT (human HGPRT): approximately 100 fold
- IC50 [1, 3]: 5.1 µM
SMILES: O=C(Nc1cccc(OCc2ccccc2I)c1)c1ccc2c(c1)C(=O)NC2=O [Ia(10)]

- IC50 (T. foetus HGXPRT; [4]): 16 µM
- IC50 [1, 3]: 19 µM
SMILES: O=C(Nc1cccc(OCc2ccccc2)c1)c1ccc2c(c1)C(=O)NC2=O [Compound Ia(1)]

SMILES: O=C(Nc1cccc(OCc2ccc(Cl)c(Cl)c2)c1)c1ccc2c(c1)C(=O)NC2=O [Compound Ia(12)]
- IC50 (T. foetus HGXPRT; [2]): 3.5 µM
- increase in affinity for T. foetus HGXPRT (lower IC50) compared to compound Ia(1) (T. foetus HGXPRT): ~5 fold
- IC50 (human HGPRT): 24 µM
- IC50 [1, 3]: 4.6 µM

- IC50 (T. foetus HGXPRT; [2]): 7.1 µM
SMILES: O=C(Nc1cccc(OCc2cc(Cl)ccc2Cl)c1)c1ccc2c(c1)C(=O)NC2=O [Ia(14)]

- IC50 (T. foetus HGXPRT; [2]): 12.1 µM
SMILES: O=C(Nc1cccc(OCc2c(Cl)cccc2Cl)c1)c1ccc2c(c1)C(=O)NC2=O [Ia(13)]

- IC50 (T. foetus HGXPRT; [2]): 8.9 µM
SMILES: O=C(Nc1cccc(OCc2cccc(I)c2)c1)c1ccc2c(c1)C(=O)NC2=O [Ia(9)]

- IC50 (T. foetus HGXPRT; [2]): 8 µM
SMILES: O=C(Nc1cc(OCc2ccccc2)ccc1Cl)c1ccc2c(c1)C(=O)NC2=O [Ia(3), (4'-Phthalimido)Carboxamido-3-Benzyloxy-6-Chlorobenzene]

- IC50 (T. foetus HGXPRT; [2]): 33 µM
- IC50 [1, 3]: 39 µM
SMILES: CCN(CC)S(=O)(=O)c1ccc(OC)c(NC(=O)c2ccc3c(c2)C(=O)NC3=O)c1 [Ib(1)]

SMILES: O=C(Nc1cccc(OCc2ccc(Br)cc2)c1)c1ccc2c(c1)C(=O)NC2=O [Compound Ia(5), (4'-phthalimido)carboxamido-3-(4-bromobenzyloxy)-benzene]
- IC50 (T. foetus HGXPRT; [2]): 1.5 µM
- Ki (T. foetus HGXPRT; competitive with respect to guanine, read-out: K (inhibition constant) with respect to guanine, T. foetus HGXPRT): 0.49 µM
- increase in affinity for T. foetus HGXPRT (lower IC50) compared to compound Ia(1) (T. foetus HGXPRT): 10 fold
- mode of inhibition of T. foetus HGXPRT (T. foetus HGXPRT; with respect to guanine): competitive inhibitor; also recorded: competitive mode of inhibition
- IC50 (human HGPRT): 45 µM
- selectivity for T. foetus HGXPRT over human HGPRT (human HGPRT): 30 fold
- concentration dependence of inhibition of T. foetus growth in culture [1]: concentration-dependent
- IC50 ([1]; read-out: ED50, growth of cultured T. foetus cells): 2.8 µM
- hypoxanthine concentration that essentially abolished any inhibition of cell proliferation ([1]; cells challenged with 5 μM of compound): > 1 mM
- reversal of growth inhibition by exogenous hypoxanthine ([1]; increasing hypoxanthine in the growth medium): reversed

- IC50 (T. foetus HGXPRT; [4]): 5 µM
SMILES: O=C(Nc1cccc2c1C(=O)NC2=O)c1ccc2c(c1)C(=O)NC2=O [Id(1)]

- IC50 (T. foetus HGXPRT; [2]): 3 µM
- IC50 (human HGPRT): > 50 µM
- selectivity for T. foetus HGXPRT over human HGPRT (human HGPRT): approximately 100 fold
- IC50 [1, 3]: 3.9 µM
SMILES: Cc1c(NC(=O)c2ccc3c(c2)C(=O)NC3=O)cccc1OCc1ccccc1 [Ia(4)]

- IC50 (T. foetus HGXPRT; [2]): 53 µM
SMILES: CN(Cc1ccccc1NC(=O)c1ccc2c(c1)C(=O)NC2=O)C1CCCCC1 [Ic(1)]

SMILES: Cc1c(NC(=O)c2ccc3c(c2)C(=O)NC3=O)cccc1OCc1ccc(Br)cc1 [Ia(15)]
- IC50 (T. foetus HGXPRT; [2]): 5.2 µM
- potency of combined 2-methyl / benzyl-substituted inhibitors relative to parent inhibitors (T. foetus HGXPRT): less potency
